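96-well plates; 48 h exposure; 5 concentrations. Endpoints by linear interpolation between flanking doses. Not reached: highest tested concentration assigned. GI50: concentration for 50% inhibition of growth. At the TGI there is no net growth.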
How the values were obtained:
Experiment in all cases: DTP human tumour cell line panel, 48 h
MDA-MB-231 breast = system: MDA-MB-231 breast
RPMI-8226 leukemia = system: RPMI-8226 leukemia
HT29 colon = system: HT29 colon
OVCAR-4 ovarian = system: OVCAR-4 ovarian
SK-OV-3 ovarian = system: SK-OV-3 ovarian
NCI/ADR-RES ovarian = system: NCI/ADR-RES ovarian
OVCAR-5 ovarian = system: OVCAR-5 ovarian
EKVX NSCLC = system: EKVX NSCLC
RXF 393 renal = system: RXF 393 renal
HL-60(TB) leukemia = system: HL-60(TB) leukemia
SF-268 CNS = system: SF-268 CNS
PC-3 prostate = system: PC-3 prostate
SK-MEL-28 melanoma = system: SK-MEL-28 melanoma
CCRF-CEM leukemia = system: CCRF-CEM leukemia
T-47D breast = system: T-47D breast
HCC-2998 colon = system: HCC-2998 colon
KM12 colon = system: KM12 colon
OVCAR-8 ovarian = system: OVCAR-8 ovarian
HCT-116 colon = system: HCT-116 colon
UACC-257 melanoma = system: UACC-257 melanoma
SN12C renal = system: SN12C renal
MCF7 breast = system: MCF7 breast
SW-620 colon = system: SW-620 colon
MDA-MB-435 = system: MDA-MB-435
HCT-15 colon = system: HCT-15 colon
NCI-H522 lung = system: NCI-H522 lung
SR leukemia = system: SR leukemia
OVCAR-3 ovarian = system: OVCAR-3 ovarian
CAKI-1 renal = system: CAKI-1 renal
HOP-92 NSCLC = system: HOP-92 NSCLC
NCI-H23 lung = system: NCI-H23 lung
COLO 205 colon = system: COLO 205 colon
UO-31 renal = system: UO-31 renal
LOX IMVI melanoma = system: LOX IMVI melanoma
K-562 leukemia = system: K-562 leukemia
HOP-62 NSCLC = system: HOP-62 NSCLC
SF-539 CNS = system: SF-539 CNS
ACHN renal = system: ACHN renal
SNB-19 CNS = system: SNB-19 CNS
SNB-75 CNS = system: SNB-75 CNS
A549 NSCLC = system: A549 NSCLC
SK-MEL-2 melanoma = system: SK-MEL-2 melanoma
UACC-62 melanoma = system: UACC-62 melanoma
TK-10 renal = system: TK-10 renal
IGROV1 ovarian = system: IGROV1 ovarian
U251 CNS = system: U251 CNS
786-0 renal = system: 786-0 renal
M14 melanoma = system: M14 melanoma
HS 578T breast = system: HS 578T breast
NCI-H226 lung = system: NCI-H226 lung
MOLT-4 leukemia = system: MOLT-4 leukemia
A498 renal = system: A498 renal
SF-295 CNS = system: SF-295 CNS
DU-145 prostate = system: DU-145 prostate
SK-MEL-5 melanoma = system: SK-MEL-5 melanoma
MALME-3M melanoma = system: MALME-3M melanoma
BT-549 breast = system: BT-549 breast
NCI-H460 lung = system: NCI-H460 lung

CCCCCCCCCCCCCCCCCCNc1ccn(C2OC(COP(=O)(O)OCCCCCCCCCCCCCCCC)C(O)C2O)c(=O)n1 (stereo unspecified)
TGI (MDA-MB-231 breast): > 100 µM
TGI (RPMI-8226 leukemia): > 100 µM
TGI (HT29 colon): > 100 µM
TGI (OVCAR-4 ovarian): > 100 µM
TGI (SK-OV-3 ovarian): > 100 µM
TGI (NCI/ADR-RES ovarian): > 100 µM
TGI (OVCAR-5 ovarian): > 100 µM
TGI (EKVX NSCLC): > 100 µM
TGI (RXF 393 renal): > 100 µM
TGI (HL-60(TB) leukemia): > 100 µM
TGI (SF-268 CNS): > 100 µM
TGI (PC-3 prostate): > 100 µM
TGI (SK-MEL-28 melanoma): > 100 µM
TGI (CCRF-CEM leukemia): > 100 µM
TGI (T-47D breast): > 100 µM
TGI (HCC-2998 colon): > 100 µM
TGI (KM12 colon): > 100 µM
TGI (OVCAR-8 ovarian): > 100 µM
TGI (HCT-116 colon): > 100 µM
TGI (UACC-257 melanoma): > 100 µM
TGI (SN12C renal): > 100 µM
TGI (MCF7 breast): > 100 µM
TGI (SW-620 colon): > 100 µM
TGI (MDA-MB-435): > 100 µM
TGI (HCT-15 colon): > 100 µM
TGI (NCI-H522 lung): > 100 µM
TGI (SR leukemia): > 100 µM
TGI (OVCAR-3 ovarian): > 100 µM
TGI (CAKI-1 renal): > 100 µM
TGI (HOP-92 NSCLC): > 100 µM
TGI (NCI-H23 lung): > 100 µM
TGI (COLO 205 colon): > 100 µM
TGI (UO-31 renal): > 100 µM
TGI (LOX IMVI melanoma): > 100 µM
TGI (K-562 leukemia): > 100 µM
TGI (HOP-62 NSCLC): > 100 µM
TGI (SF-539 CNS): > 100 µM
TGI (ACHN renal): > 100 µM
TGI (SNB-19 CNS): > 100 µM
TGI (SNB-75 CNS): > 100 µM
TGI (A549 NSCLC): > 100 µM
TGI (SK-MEL-2 melanoma): > 100 µM
TGI (UACC-62 melanoma): > 100 µM
TGI (TK-10 renal): > 100 µM
TGI (IGROV1 ovarian): > 100 µM
TGI (U251 CNS): > 100 µM
TGI (786-0 renal): > 100 µM
TGI (M14 melanoma): > 100 µM
TGI (HS 578T breast): > 100 µM
TGI (NCI-H226 lung): > 100 µM
TGI (MOLT-4 leukemia): > 100 µM
TGI (A498 renal): > 100 µM
TGI (SF-295 CNS): > 100 µM
TGI (DU-145 prostate): > 100 µM

COc1ncnc2c1ncn2C/C(Br)=C(\Br)CCl
GI50 (MDA-MB-231 breast): 2.4 µM
TGI (MDA-MB-231 breast): 7.28 µM
GI50 (RPMI-8226 leukemia): 3.19 µM
TGI (RPMI-8226 leukemia): 16.4 µM
GI50 (HT29 colon): 1.63 µM
TGI (HT29 colon): 3.71 µM
GI50 (OVCAR-4 ovarian): 1.61 µM
TGI (OVCAR-4 ovarian): 3.02 µM
GI50 (SK-OV-3 ovarian): 14.8 µM
TGI (SK-OV-3 ovarian): 28 µM
GI50 (NCI/ADR-RES ovarian): 6.12 µM
TGI (NCI/ADR-RES ovarian): 18.9 µM
GI50 (OVCAR-5 ovarian): 3.83 µM
TGI (OVCAR-5 ovarian): 15.2 µM
GI50 (EKVX NSCLC): 16.3 µM
TGI (EKVX NSCLC): 29.9 µM
GI50 (RXF 393 renal): 1.64 µM
TGI (RXF 393 renal): 3.06 µM
GI50 (HL-60(TB) leukemia): 2.03 µM
TGI (HL-60(TB) leukemia): 6.32 µM
GI50 (SF-268 CNS): 1.96 µM
TGI (SF-268 CNS): 5.59 µM
GI50 (PC-3 prostate): 9.12 µM
TGI (PC-3 prostate): 23.3 µM
GI50 (SK-MEL-28 melanoma): 2.62 µM
TGI (SK-MEL-28 melanoma): 8.62 µM
GI50 (CCRF-CEM leukemia): 2.73 µM
TGI (CCRF-CEM leukemia): 13.5 µM
GI50 (T-47D breast): 2.37 µM
TGI (T-47D breast): 6.84 µM
GI50 (HCC-2998 colon): 17.2 µM
TGI (HCC-2998 colon): 31.2 µM
GI50 (KM12 colon): 3.54 µM
TGI (KM12 colon): 13.4 µM
GI50 (OVCAR-8 ovarian): 3.01 µM
TGI (OVCAR-8 ovarian): 7.84 µM
GI50 (HCT-116 colon): 1.73 µM
TGI (HCT-116 colon): 3.49 µM
GI50 (UACC-257 melanoma): 0.775 µM
TGI (UACC-257 melanoma): 3.9 µM
GI50 (SN12C renal): 2.44 µM
TGI (SN12C renal): 9.52 µM
GI50 (MCF7 breast): 1.43 µM
TGI (MCF7 breast): 3.06 µM
GI50 (MDA-MB-435): 2.94 µM
TGI (MDA-MB-435): 11.5 µM
GI50 (HCT-15 colon): 1.84 µM
TGI (HCT-15 colon): 4.16 µM
GI50 (NCI-H522 lung): 0.875 µM
TGI (NCI-H522 lung): 2.25 µM
GI50 (SR leukemia): 2.73 µM
TGI (SR leukemia): 12.2 µM
GI50 (OVCAR-3 ovarian): 1.77 µM
TGI (OVCAR-3 ovarian): 3.22 µM
GI50 (CAKI-1 renal): 1.87 µM
TGI (CAKI-1 renal): 3.87 µM
GI50 (HOP-92 NSCLC): 4.08 µM
TGI (HOP-92 NSCLC): 16.4 µM
GI50 (NCI-H23 lung): 3.16 µM
TGI (NCI-H23 lung): 11.4 µM
GI50 (COLO 205 colon): 1.73 µM
TGI (COLO 205 colon): 3.18 µM
GI50 (UO-31 renal): 2.41 µM
TGI (UO-31 renal): 10.6 µM
GI50 (SK-MEL-5 melanoma): 2.19 µM
TGI (SK-MEL-5 melanoma): 5.59 µM
GI50 (LOX IMVI melanoma): 2.79 µM
TGI (LOX IMVI melanoma): 9.61 µM
GI50 (K-562 leukemia): 3.29 µM
TGI (K-562 leukemia): 10.9 µM
GI50 (HOP-62 NSCLC): 3.9 µM
TGI (HOP-62 NSCLC): 14.1 µM
GI50 (MALME-3M melanoma): 1.49 µM
TGI (MALME-3M melanoma): 3.21 µM
GI50 (SF-539 CNS): 2.17 µM
TGI (SF-539 CNS): 7.61 µM
GI50 (ACHN renal): 2.14 µM
TGI (ACHN renal): 4.92 µM
GI50 (SNB-19 CNS): 12.1 µM
TGI (SNB-19 CNS): 24.5 µM
GI50 (SNB-75 CNS): 2.01 µM
TGI (SNB-75 CNS): 8.57 µM
GI50 (A549 NSCLC): 10.8 µM
TGI (A549 NSCLC): 25.9 µM
GI50 (UACC-62 melanoma): 2.65 µM
TGI (UACC-62 melanoma): 12 µM
GI50 (TK-10 renal): 2.54 µM
TGI (TK-10 renal): 7.64 µM
GI50 (IGROV1 ovarian): 1.77 µM
TGI (IGROV1 ovarian): 4.86 µM
GI50 (U251 CNS): 1.74 µM
TGI (U251 CNS): 3.64 µM
GI50 (786-0 renal): 3.38 µM
TGI (786-0 renal): 11.5 µM
GI50 (M14 melanoma): 1.82 µM
TGI (M14 melanoma): 4.14 µM
GI50 (NCI-H226 lung): 2.82 µM
TGI (NCI-H226 lung): 9.38 µM
GI50 (MOLT-4 leukemia): 2.91 µM
TGI (MOLT-4 leukemia): 25.4 µM
GI50 (SF-295 CNS): 10.6 µM
TGI (SF-295 CNS): 23.3 µM
GI50 (DU-145 prostate): 5.31 µM
TGI (DU-145 prostate): 18.2 µM

N[C@H]1CCc2c1nc1c(c2-c2ccccc2)CC[C@@H]1N
TGI (MDA-MB-231 breast): 66 µM
TGI (RPMI-8226 leukemia): > 100 µM
TGI (HT29 colon): 26 µM
TGI (OVCAR-4 ovarian): > 100 µM
TGI (NCI/ADR-RES ovarian): > 100 µM
TGI (OVCAR-5 ovarian): 59.7 µM
TGI (EKVX NSCLC): > 100 µM
TGI (HL-60(TB) leukemia): 46.4 µM
TGI (SF-268 CNS): 59.8 µM
TGI (PC-3 prostate): 29.5 µM
TGI (BT-549 breast): 28.1 µM
TGI (CCRF-CEM leukemia): 40.7 µM
TGI (HCC-2998 colon): 49.2 µM
TGI (KM12 colon): > 100 µM
TGI (OVCAR-8 ovarian): > 100 µM
TGI (HCT-116 colon): 45.6 µM
TGI (SN12C renal): > 100 µM
TGI (MCF7 breast): 64.3 µM
TGI (NCI-H460 lung): > 100 µM
TGI (SW-620 colon): 27.5 µM
TGI (MDA-MB-435): 30.2 µM
TGI (HCT-15 colon): > 100 µM
TGI (NCI-H522 lung): 30.1 µM
TGI (SR leukemia): > 100 µM
TGI (CAKI-1 renal): 33.7 µM
TGI (HOP-92 NSCLC): > 100 µM
TGI (NCI-H23 lung): 61.6 µM
TGI (COLO 205 colon): 44.2 µM
TGI (SK-MEL-5 melanoma): 29.7 µM
TGI (LOX IMVI melanoma): 30.6 µM
TGI (K-562 leukemia): 26.6 µM
TGI (HOP-62 NSCLC): > 100 µM
TGI (MALME-3M melanoma): 31.9 µM
TGI (SF-539 CNS): 31.1 µM
TGI (ACHN renal): > 100 µM
TGI (SNB-19 CNS): > 100 µM
TGI (SNB-75 CNS): 29.5 µM
TGI (A549 NSCLC): > 100 µM
TGI (SK-MEL-2 melanoma): 40.1 µM
TGI (TK-10 renal): > 100 µM
TGI (IGROV1 ovarian): 31.4 µM
TGI (U251 CNS): 55.3 µM
TGI (786-0 renal): 28.6 µM
TGI (M14 melanoma): 31.1 µM
TGI (NCI-H226 lung): > 100 µM
TGI (MOLT-4 leukemia): 27.6 µM
TGI (SF-295 CNS): 45.5 µM
TGI (DU-145 prostate): > 100 µM

From PubChem BioAssay (NCI)
